Starred links: 1 amine or outer side, 2 acyl side, 3 side chain; linkers in the order of their positions; H or OH if unused. Positions of bridges follow the written chain, without caps; N, C: chain ends. Non-standard residues stand in square brackets, D forms with d. Residues, ends and D or L forms follow the SMILES beside them. Groups on a side chain read outwards from the residue. *: point of attachment. Trp(1-Me) = Cn1cc(C[C@H](N)C(=O)O)c2ccccc21; C18 diacid = O=C(O)CCCCCCCCCCCCCCCCC(=O)*; C16 diacid = O=C(O)CCCCCCCCCCCCCCC(=O)*; γGlu = O=C(O)[C@H](CCC(=O)[*:2])N[*:1]; AEEA = NCCOCCOCC(=O)O; Aoc = NCCCCCCCC(=O)O; Sar = CNCC(=O)O

13 molecules from patent publication US11965039B2, “Compstatin analogues and their medical uses” (priority 2018, dated 2024) can be followed below.

The first test deals with classical complement pathway. Description: In vitro haemolysis assay (inhibition of classical complement pathway). It is filed as cell-based, human. Particulars: human serum, sensitized sheep red blood cells; Table 3, given as upper bounds; read-out: IC50, inhibition of hemolysis. Put shortly:
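Compound dilutions preincubated 15 min at room temperature with diluted human serum (titrated per batch for 70-90% maximal haemolysis), then antibody-sensitized sheep RBC (10^7/well) added for 30 min at 37 °C in Tris/casein buffer, pH 7.4. Stopped with EDTA; haemolysis read at 405 nm; IC50 by 4PL fit.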
Usually IC50 stands for the concentration that inhibits the measured activity by half. Take `CC[C@H](C)[C@@H]1NC(=O)[C@@H](NC(=O)[C@H](Cc2ccccc2)NC(=O)[C@H](CCC(=O)O)NC(=O)[C@H](CO)NC(C)=O)CSSC[C@@H](C(=O)N(C)CC(=O)N[C@@H](CCC(=O)O)C(=O)NCC(=O)N[C@@H](C)C(=O)N[C@@H](CCCCNC(=O)COCCOCCNC(=O)CC[C@H](NC(=O)COCCOCCNC(=O)CNC(=O)CC[C@H](NC(=O)CCCCCCCCCCCCCCCCC(=O)O)C(=O)O)C(=O)O)C(N)=O)NC(=O)[C@H](CCCNC(=N)N)NC(=O)[C@H](Cc2c[nH]cn2)NC(=O)[C@H](CCC(=O)O)NC(=O)CNC(=O)[C@H](Cc2c[nH]c3ccccc23)NC(=O)[C@H](CCC(=O)O)NC(=O)[C@H](CCC(N)=O)NC(=O)[C@H](Cc2cn(C)c3ccccc23)NC1=O` [Compound 120] (Ac-SEFCI[Trp(1-Me)]QEWGEHRC[Sar]EGAK([AEEA-γGlu-AEEA-Gly-γGlu-C18 diacid])-NH2; disulfide 4-14): the half-maximal inhibitory concentration (IC50) was less than 250 nM.

Turning to `CC[C@H](C)[C@@H]1NC(=O)[C@@H](NC(=O)[C@H](Cc2ccc(O)cc2)NC(=O)[C@H](CCC(=O)O)NC(=O)[C@H](CO)NC(C)=O)CSSC[C@@H](C(=O)N(C)CC(=O)N[C@@H](CCC(=O)O)C(=O)NCC(=O)N[C@@H](CCC(=O)O)C(=O)NCCOCCOCC(=O)NCCOCCOCC(=O)N[C@@H](CCCCNC(=O)CC[C@H](NC(=O)CNC(=O)CC[C@H](NC(=O)CCCCCCCCCCCCCCCCC(=O)O)C(=O)O)C(=O)O)C(N)=O)NC(=O)[C@H](CCCNC(=N)N)NC(=O)[C@H](Cc2c[nH]cn2)NC(=O)[C@H](CCC(=O)O)NC(=O)CNC(=O)[C@H](Cc2c[nH]c3ccccc23)NC(=O)[C@H](CCC(=O)O)NC(=O)[C@H](CCC(N)=O)NC(=O)[C@H](Cc2cn(C)c3ccccc23)NC1=O` [Compound 125] (Ac-SEYCI[Trp(1-Me)]QEWGEHRC[Sar]EGE[AEEA][AEEA]K([γGlu-Gly-γGlu-C18 diacid])-NH2; disulfide 4-14), the IC50 was less than 500 nM.

Consider `CC[C@H](C)[C@@H]1NC(=O)[C@@H](NC(=O)[C@H](Cc2ccccc2)NC(=O)[C@H](C)NC(=O)[C@H](CO)NC(=O)CNC(=O)[C@H](CCC(=O)O)NC(C)=O)CSSC[C@@H](C(=O)N[C@@H](CCC(=O)O)C(=O)NCC(=O)N[C@@H](CCC(=O)O)C(N)=O)NC(=O)[C@H](CCCNC(=N)N)NC(=O)[C@H](Cc2c[nH]cn2)NC(=O)[C@H](CCC(=O)O)NC(=O)CNC(=O)[C@H](Cc2c[nH]c3ccccc23)NC(=O)[C@H](CC(=O)O)NC(=O)[C@H](CCC(N)=O)NC(=O)[C@H](Cc2cn(C)c3ccccc23)NC1=O` [Compound 58] (Ac-EGSAFCI[Trp(1-Me)]QDWGEHRCEGE-NH2; disulfide 6-16), for which the IC50 is less than 100 nM.

`CC[C@H](C)[C@@H]1NC(=O)[C@@H](NC(=O)[C@H](Cc2ccc(O)cc2)NC(=O)[C@H](C)NC(=O)[C@H](CO)NC(=O)[C@H](CO)NC(=O)[C@H](CCC(=O)O)NC(C)=O)CSSC[C@@H](C(=O)N[C@H](C(N)=O)[C@@H](C)O)NC(=O)[C@H](CCCNC(=N)N)NC(=O)[C@H](Cc2c[nH]cn2)NC(=O)[C@H](CCC(=O)O)NC(=O)CNC(=O)[C@H](Cc2c[nH]c3ccccc23)NC(=O)[C@H](CC(=O)O)NC(=O)[C@H](CCC(N)=O)NC(=O)[C@H](Cc2c[nH]c3ccccc23)NC1=O` [Compound 10] (Ac-ESSAYCIWQDWGEHRCT-NH2; disulfide 6-16): the IC50 was less than 100 nM.

`CC[C@H](C)[C@@H]1NC(=O)[C@@H](NC(=O)[C@H](Cc2ccccc2)NC(=O)[C@H](CCC(=O)O)NC(=O)[C@H](CO)NC(C)=O)CSSC[C@@H](C(=O)N[C@H](C(=O)N[C@@H](CCC(=O)O)C(=O)NCC(=O)N[C@@H](CCC(=O)O)C(=O)NCCCCCCCC(=O)N[C@@H](CCC(=O)O)C(=O)N[C@@H](CCCCNC(=O)CC[C@H](NC(=O)CNC(=O)CC[C@H](NC(=O)CCCCCCCCCCCCCCCCC(=O)O)C(=O)O)C(=O)O)C(N)=O)[C@@H](C)O)NC(=O)[C@H](CCCNC(=N)N)NC(=O)[C@H](Cc2c[nH]cn2)NC(=O)[C@H](CCC(=O)O)NC(=O)CNC(=O)[C@H](Cc2c[nH]c3ccccc23)NC(=O)[C@H](CC(=O)O)NC(=O)[C@H](CCC(N)=O)NC(=O)[C@H](Cc2cn(C)c3ccccc23)NC1=O` [Compound 137] (Ac-SEFCI[Trp(1-Me)]QDWGEHRCTEGE[Aoc]EK([γGlu-Gly-γGlu-C18 diacid])-NH2; disulfide 4-14): the IC50 is less than 100 nM.

In the case of `CC[C@H](C)[C@H](NC(C)=O)C(=O)N[C@H]1CSSC[C@@H](C(=O)N[C@@H](CO)C(N)=O)NC(=O)[C@H](CCCNC(=N)N)NC(=O)[C@H](Cc2c[nH]cn2)NC(=O)[C@H](CCC(=O)O)NC(=O)CNC(=O)[C@H](Cc2c[nH]c3ccccc23)NC(=O)[C@H](CC(=O)O)NC(=O)[C@H](CCC(N)=O)NC(=O)[C@H](Cc2c[nH]c3ccccc23)NC(=O)[C@H]([C@@H](C)CC)NC1=O` [Compound 21] (Ac-ICIWQDWGEHRCS-NH2; disulfide 2-12), the IC50 is less than 100 nM.

Consider `CC[C@H](C)[C@@H]1NC(=O)[C@@H](NC(=O)[C@H](Cc2ccccc2)NC(=O)[C@H](CCC(=O)O)NC(=O)[C@H](CO)NC(C)=O)CSSC[C@@H](C(=O)N(C)CC(=O)N[C@@H](CCC(=O)O)C(=O)NCC(=O)N[C@@H](CCC(=O)O)C(=O)NCCOCCOCC(=O)N[C@@H](CCCCNC(=O)CC[C@H](NC(=O)CNC(=O)CC[C@H](NC(=O)CCCCCCCCCCCCCCCCC(=O)O)C(=O)O)C(=O)O)C(N)=O)NC(=O)[C@H](CCCNC(=N)N)NC(=O)[C@H](Cc2c[nH]cn2)NC(=O)[C@H](CCC(=O)O)NC(=O)CNC(=O)[C@H](Cc2c[nH]c3ccccc23)NC(=O)[C@H](CC(=O)O)NC(=O)[C@H](CCC(N)=O)NC(=O)[C@H](Cc2cn(C)c3ccccc23)NC1=O` [Compound 138] (Ac-SEFCI[Trp(1-Me)]QDWGEHRC[Sar]EGE[AEEA]K([γGlu-Gly-γGlu-C18 diacid])-NH2; disulfide 4-14), for which the IC50 was less than 100 nM.

On to `CC[C@H](C)[C@@H]1NC(=O)[C@@H](NC(=O)[C@H](Cc2ccccc2)NC(=O)[C@H](CCC(=O)O)NC(=O)[C@H](CO)NC(C)=O)CSSC[C@@H](C(=O)N(C)CC(=O)N[C@@H](CCC(=O)O)C(=O)NCC(=O)N[C@@H](CCC(=O)O)C(=O)N[C@@H](CO)C(=O)N[C@@H](CCC(=O)O)C(=O)N[C@@H](CO)C(=O)N[C@@H](CCCCNC(=O)CC[C@H](NC(=O)CCCCCCCCCCCCCCCCC(=O)O)C(=O)O)C(N)=O)NC(=O)[C@H](CCCNC(=N)N)NC(=O)[C@H](Cc2c[nH]cn2)NC(=O)[C@H](CCC(=O)O)NC(=O)CNC(=O)[C@H](Cc2c[nH]c3ccccc23)NC(=O)[C@H](CC(=O)O)NC(=O)[C@H](CCC(N)=O)NC(=O)[C@H](Cc2cn(C)c3ccccc23)NC1=O` [Compound 141] (Ac-SEFCI[Trp(1-Me)]QDWGEHRC[Sar]EGESESK([γGlu-C18 diacid])-NH2; disulfide 4-14), for which the concentration for half-maximal inhibition (IC50) was less than 100 nM.

Regarding `CC[C@H](C)[C@@H]1NC(=O)[C@@H](NC(=O)[C@H](Cc2ccccc2)NC(=O)[C@H](CCC(=O)O)NC(C)=O)CSSC[C@@H](C(=O)N(C)CC(=O)N[C@@H](CCC(=O)O)C(=O)N[C@@H](C)C(=O)NCCOCCOCC(=O)NCCOCCOCC(=O)N[C@@H](CCCCNC(=O)CC[C@H](NC(=O)CNC(=O)CC[C@H](NC(=O)CCCCCCCCCCCCCCCCC(=O)O)C(=O)O)C(=O)O)C(N)=O)NC(=O)[C@H](CCCNC(=N)N)NC(=O)[C@H](Cc2c[nH]cn2)NC(=O)[C@H](CCC(=O)O)NC(=O)CNC(=O)[C@H](Cc2c[nH]c3ccccc23)NC(=O)[C@H](CC(=O)O)NC(=O)[C@H](CCC(N)=O)NC(=O)[C@H](Cc2cn(C)c3ccccc23)NC1=O` [Compound 145] (Ac-EFCI[Trp(1-Me)]QDWGEHRC[Sar]EA[AEEA][AEEA]K([γGlu-Gly-γGlu-C18 diacid])-NH2; disulfide 3-13), the 50% inhibitory concentration (IC50) is less than 100 nM.

For `CC[C@H](C)[C@@H]1NC(=O)[C@@H](NC(=O)[C@H](Cc2ccc(O)cc2)NC(C)=O)CSSC[C@@H](C(=O)N[C@H](C(N)=O)[C@@H](C)O)NC(=O)[C@H](CCCNC(=N)N)NC(=O)[C@H](Cc2c[nH]cn2)NC(=O)[C@H](CCC(=O)O)NC(=O)CNC(=O)[C@H](Cc2c[nH]c3ccccc23)NC(=O)[C@H](CC(=O)O)NC(=O)[C@H](CCC(N)=O)NC(=O)[C@H](Cc2c[nH]c3ccccc23)NC1=O` [Compound 9] (Ac-YCIWQDWGEHRCT-NH2; disulfide 2-12), the IC50 was less than 100 nM.

On to `CC[C@H](C)[C@H](NC(C)=O)C(=O)N[C@H]1CSSC[C@@H](C(=O)N[C@H](C(=O)N[C@@H](CCC(=O)O)C(=O)NCC(=O)N[C@@H](CCCCNC(=O)COCCOCCNC(=O)COCCOCCNC(=O)CC[C@H](NC(=O)CCCCCCCCCCCCCCC(=O)O)C(=O)O)C(N)=O)[C@@H](C)O)NC(=O)[C@H](CCCNC(=N)N)NC(=O)[C@H](Cc2c[nH]cn2)NC(=O)[C@H](CCC(=O)O)NC(=O)CNC(=O)[C@H](Cc2c[nH]c3ccccc23)NC(=O)[C@H](CC(=O)O)NC(=O)[C@H](CCC(N)=O)NC(=O)[C@H](Cc2c[nH]c3ccccc23)NC(=O)[C@H]([C@@H](C)CC)NC1=O` [Compound 93] (Ac-ICIWQDWGEHRCTEGK([AEEA-AEEA-γGlu-C16 diacid])-NH2; disulfide 2-12), for which the IC50 is less than 500 nM.

Staying with this test, now noted: human serum, sensitized sheep red blood cells; Table 4, valine 3 vs isoleucine 3 pairs; read-out: CP hemolysis IC50.
For the molecule `CC[C@H](C)[C@H](NC(C)=O)C(=O)N[C@H]1CSSC[C@@H](C(=O)N[C@H](C(N)=O)[C@@H](C)O)NC(=O)[C@H](CO)NC(=O)[C@H](Cc2c[nH]cn2)NC(=O)[C@H](CCC(=O)O)NC(=O)CNC(=O)[C@H](Cc2c[nH]c3ccccc23)NC(=O)[C@H](CC(=O)O)NC(=O)[C@H](CCC(N)=O)NC(=O)[C@H](Cc2c[nH]c3ccccc23)NC(=O)[C@H](C(C)C)NC1=O` [F, reference compound] (Ac-ICVWQDWGEHSCT-NH2; disulfide 2-12), the IC50 was 540 nM.

For `CC[C@H](C)[C@H](NC(C)=O)C(=O)N[C@H]1CSSC[C@@H](C(=O)N[C@@H](CO)C(N)=O)NC(=O)[C@H](CCCNC(=N)N)NC(=O)[C@H](Cc2c[nH]cn2)NC(=O)[C@H](CCC(=O)O)NC(=O)CNC(=O)[C@H](Cc2c[nH]c3ccccc23)NC(=O)[C@H](CC(=O)O)NC(=O)[C@H](CCC(N)=O)NC(=O)[C@H](Cc2c[nH]c3ccccc23)NC(=O)[C@H]([C@@H](C)CC)NC1=O` [Compound 21] (Ac-ICIWQDWGEHRCS-NH2; disulfide 2-12), the IC50 turned out to be 77 nM.

The test is the same for the next values; noted with them: read-out: IC50, inhibition of hemolysis.
As to `CC[C@H](C)[C@@H]1NC(=O)[C@@H](NC(=O)[C@H](Cc2ccccc2)NC(=O)[C@H](CCC(=O)O)NC(=O)[C@H](CO)NC(C)=O)CSSC[C@@H](C(=O)N[C@@H](CO)C(=O)N[C@@H](CCC(=O)O)C(=O)N[C@@H](C)C(N)=O)NC(=O)[C@H](CCCNC(=N)N)NC(=O)[C@H](Cc2c[nH]cn2)NC(=O)[C@H](CCC(=O)O)NC(=O)CNC(=O)[C@H](Cc2c[nH]c3ccccc23)NC(=O)[C@H](CC(=O)O)NC(=O)[C@H](CCC(N)=O)NC(=O)[C@H](Cc2cn(C)c3ccccc23)NC1=O` [Compound 84] (Ac-SEFCI[Trp(1-Me)]QDWGEHRCSEA-NH2; disulfide 4-14), the IC50 is less than 100 nM.
